Reference: US7157479B2, “Oxazol/thiazol-derivatives activators of the hPPAR-alpha receptor” (Glaxo Group Limited, priority 2001, dated 2007)

Legend:
hPPAR alpha = target: T1, hPPAR alpha (Homo sapiens, UniProt Q07869); assay: Transient transfection (transactivation) assay in CV-1 cells, hPPAR alpha; format: cell-based; details: GAL4 chimera, SPAP reporter, read-out: EC50 nM HPPARα
T1 construct: expressed in transfected cells; host or cells: CV-1 cells
T1 sequence (Q07869 239-466 limits assumed): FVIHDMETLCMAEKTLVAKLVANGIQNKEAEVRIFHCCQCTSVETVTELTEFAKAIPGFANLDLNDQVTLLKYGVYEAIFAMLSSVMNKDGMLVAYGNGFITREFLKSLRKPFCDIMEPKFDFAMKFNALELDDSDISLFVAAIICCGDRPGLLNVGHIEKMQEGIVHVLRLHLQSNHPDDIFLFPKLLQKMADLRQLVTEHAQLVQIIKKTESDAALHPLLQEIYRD
Text: (§1) Compounds were screened for functional potency in transient transfection assays in CV-1 cells for their ability to activate the PPAR subtypes (transactivation assay). A previously established chimeric receptor system was utilized to allow comparison of the relative transcriptional activity of the receptor subtypes on the same target gene and to prevent endogenous receptor activation from complicating the interpretation of results. See, for example, Lehmann, J. M.; Moore, L. B.; Smith-Oliver, T. A.; Wilkison, W. O.; Willson, T. M.; Kliewer, S. A., An antidiabetic thiazolidinedione is a high affinity ligand for peroxisome proliferator-activated receptor gamma (PPARgamma), J. Biol. Chem., 1995, 270, 12953–6. The ligand binding domains for murine and human PPAR alpha, PPAR gamma, and PPAR delta were each fused to the yeast transcription factor GAL4 DNA binding domain. CV-1 cells were transiently transfected with expression vectors for the respective PPAR chimera along with0 a reporter construct containing five copies of the GAL4 DNA binding site driving expression of secreted placental alkaline phosphatase (SPAP) and β-galactosidase. After 16 h, the medium was exchanged to DME medium supplemented with 10% delipidated fetal calf serum and the test compound at the appropriate concentration. […]

hPPAR delta = target: T2, hPPAR delta (Homo sapiens, UniProt Q03181); assay: Transient transfection (transactivation) assay in CV-1 cells, hPPAR delta; format: cell-based; details: GAL4 chimera, SPAP reporter, read-out: EC50 nM HPPARδ
T2 construct: expressed in transfected cells; host or cells: CV-1 cells
T2 sequence (Q03181 211-439 limits assumed): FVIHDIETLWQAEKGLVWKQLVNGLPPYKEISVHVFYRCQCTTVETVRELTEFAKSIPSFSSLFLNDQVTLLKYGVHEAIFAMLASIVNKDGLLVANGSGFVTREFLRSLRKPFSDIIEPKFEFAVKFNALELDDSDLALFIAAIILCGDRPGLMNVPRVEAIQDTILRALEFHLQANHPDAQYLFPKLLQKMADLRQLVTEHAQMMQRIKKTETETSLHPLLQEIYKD
Text: as §1

hPPAR gamma = target: T3, hPPAR gamma (Homo sapiens, UniProt P37231); assay: Transient transfection (transactivation) assay in CV-1 cells, hPPAR gamma; format: cell-based; details: GAL4 chimera, SPAP reporter, read-out: EC50 nM HPPARy
T3 construct: expressed in transfected cells; host or cells: CV-1 cells
T3 sequence (P37231 238-503 limits assumed): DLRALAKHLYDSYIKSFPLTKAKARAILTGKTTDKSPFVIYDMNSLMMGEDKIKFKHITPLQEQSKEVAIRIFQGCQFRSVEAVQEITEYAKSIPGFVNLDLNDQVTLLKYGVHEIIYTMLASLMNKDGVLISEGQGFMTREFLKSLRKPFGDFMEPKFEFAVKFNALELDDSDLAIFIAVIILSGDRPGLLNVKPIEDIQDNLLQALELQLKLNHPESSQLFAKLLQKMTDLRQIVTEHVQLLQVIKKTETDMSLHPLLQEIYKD
Text: as §1

Structure (SMILES)	EC50 (hPPAR alpha) [nM]	EC50 (hPPAR delta) [nM]	EC50 (hPPAR gamma) [nM]	melting point [°C]
CCc1ccc(-c2sc(C(=O)NCc3ccc(OC(C)(C)C(=O)O)cc3)nc2C)cc1 [Example 2, 2-methyl-2–[4-{[(4-methyl-5-[4-ethylphenyl]thiazol-2-ylcarbonyl)amino]methyl}phenoxy]propionic Acid]	5	8740	700	–
CCOC(=O)C(C)(C)Oc1ccc(CNC(=O)c2nc(C)c(-c3ccc(F)cc3)s2)cc1 [Example 3, 2-methyl-2-[4-{[(4-methyl-5-[4-fluorophenyl]thiazol-2-ylcarbonyl)amino]methyl}phenoxy]propionic Acid Ethyl Ester]	–	–	–	97
Cc1nc(C(=O)NCc2ccc(OC(C)(C)C(=O)O)cc2)sc1-c1ccc(F)cc1 [Example 4, 2-methyl-2-[4-{[(4-methyl-5-[4-fluorophenyl]thiazol-2-ylcarbonyl)amino]methyl}phenoxy]propionic Acid]	61	10000	5880	122
